These are literature values, as cited in US9056184B2, “Methods for renal denervation” (priority 2010, dated 2015).

Where only a bound is given, the exact number is not on record here.

The conditions of series [1]: in vivo.
Series [2] addresses tetrodotoxin-sensitive voltage-gated sodium channel (TTX-s Na+ channel). To be noted: read-out: binding affinity.
In series [3] the target is tetrodotoxin-resistant voltage-gated sodium channel (TTX-r Na+ channel).
Series [4] has as its system CYP3A4. The conditions noted are these: in vivo.
For series [5] the following is noted: after initiation of therapy.

Take `[Li]` [lithium]: the toxic amounts in series [1] is on record as above 1.5 mmol/L.

For `NC1=N[C@H](O)[C@H]2[C@H]3O[C@]4(O)O[C@@H]([C@@H](O)[C@@]2(N1)[C@@H]4O)[C@]3(O)CO` [Tetrodotoxin], in series [2], the Kd is 5 to 15 nM. Besides, the binding affinity result in series [3] is listed as “low micromolar”.

Regarding `NC(=O)N1c2ccccc2C=Cc2ccccc21` [carbamazepine, Carbamazepine], the “time for auto-induction to reach a plateau” value in series [4] was 5 to 7 days. The “time to stable carbamazepine concentrations” value in series [5] is 2-3 weeks.
